Laboratory results as given in the METLIN SMRT retention time set (Domingo-Almenara et al. 2019).

Assay: gradient 5% acetonitrile 3 min, to 50% in 2 min, to 85% in 15 min, held 3 min, 100 µL/min
Details: column: Zorbax Extend-C18 2.1 x 50 mm; eluents: water / acetonitrile, 0.1% formic acid
Method in brief: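 The system's dead and dwell volumes were 40 μL and 900 μL, with a Zorbax Extend-C18 column (2.1 × 50 mm, 1.8 μm) run at 100 μL/min in water and acetonitrile containing 0.1% formic acid each. Pure standards were analyzed in mixtures of ~100 molecules by HPLC–quadrupole time-of-flight mass spectrometry in positive and negative ionization mode. Retention time was assigned from computationally picked, manually inspected adduct peaks.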

SMILES | RP-LC retention time [s]
O=c1c2cc(-c3cccs3)nn2cnn1Cc1nc(-c2ccc(OCc3ccccc3)cc2)no1 | 1220
COc1ccc(-c2nc(C3CC(=O)N(c4ccc(F)cc4)C3)no2)cc1 (centres undefined) | 961
O=C(NC1CCCCC1)C1CCCN(S(=O)(=O)c2c[nH]c(C(=O)N3CCCC3)c2)C1 (centres undefined) | 759
COCCc1noc(C2Cc3ccccc3N2C(=O)NCC(C)C)n1 (centres undefined) | 859
O=C(NCCC1CCN(C(=O)Nc2cc(F)cc(F)c2)CC1)C1CCCC1 | 860
COc1ccc(-c2nc3ncccn3c2NCc2ccccc2)cc1 | 717
CCc1ccc(-c2noc(-c3nnn(Cc4nc(-c5ccccc5OC)oc4C)c3C)n2)cc1 | 1270
O=C(CCNc1c(-c2cccc(F)c2)nc2cnccn12)NCc1ccc(Cl)cc1 | 785
O=C(NCCCN1CCCC1=O)C1=C2CCCN2c2ccc(F)cc2S1(=O)=O | 650
COc1ccc(-c2nnc(CC(=O)NCC3CC3)o2)cc1 | 732
COCC(=O)N1CCOc2ccc(N(C)C)cc2C1 | 550
CCOC(=O)CNC(=O)NC(C(=O)N1CCc2ccccc21)c1ccccc1 (centres undefined) | 832
COc1ccc(OC)c(NC(=O)Cn2cccc(-c3nc(-c4ccc(OC)c(OC)c4)no3)c2=O)c1 | 810
Cc1ccc(OCC(=O)N2CCCCC2c2nncn2CC2CC2)cc1 (centres undefined) | 767
Cc1cc(C)cc(NS(=O)(=O)c2c(C)sc(C)c2-c2n[nH]c(C)c2C)c1 | 1110
CCOc1ccc(CC(=O)NC2CCN(c3cc(-c4ccc(F)cc4)[nH]n3)C2)cc1OCC (centres undefined) | 679
CCOC(=O)c1c(N2C(=O)CC(Sc3ccccc3C(=O)O)C2=O)sc(C)c1C (centres undefined) | 821
O=C1CCCN1CCCN1C(=O)[C@H]2CN(Cc3ccccc3Cl)C[C@H]2C1=O | 596
O=C(Nc1nc2c(s1)CN(C(=O)C1CC=CCC1)CC2)c1cccs1 (centres undefined) | 770
Cc1nc(N)nc(Cl)c1CCC1OCCO1 | 673
O=C1/C(=C/c2ccc([N+](=O)[O-])cc2)CCc2ccccc21 | 1160

SMILES | RP-LC retention time [s]
Cc1noc(C)c1CNC(=O)c1cc(Cl)ccc1F | 778
CCCN(CC1CCOC1)C(=O)Nc1ccc(Cl)cc1C (centres undefined) | 639
Cc1cc(C)c2[nH]c3c(c(=O)c2c1)CN(CC(=O)Nc1cccc(F)c1)CC3 | 640
Cc1noc(C)c1-c1ccc(S(=O)(=O)Nc2cccc(C#N)c2)cc1 | 874
C=CCn1c2ccccc2c2nnc(SCC(=O)Nc3nc(-c4ccccc4)cs3)nc21 | 1050
Cc1cnc(C2CC2)n1CCNS(=O)(=O)Cc1ccccc1F | 619
CCN(CC)S(=O)(=O)c1c(C)nc2sc(C)nn12 | 760
Cc1ccc(Nc2c(-c3cccc(Br)c3)nc3cc(C)ccn23)cc1 | 857
O=C1NCCCCCCN(C(=O)c2cn[nH]c2)[C@H]2CCC[C@@H]12 | 625
O=C1C(OC2CCN(S(=O)(=O)c3ccc(C(F)(F)F)cc3)CC2)CCN1CC1CC1 (centres undefined) | 925
Cc1ccc(NC(=O)c2nc3nc(C)cc(C(F)F)n3n2)c(C)c1 | 854
Cc1ccccc1Nc1c(-c2ccccc2)nc2cccc(C)n12 | 750
O=c1c2cnn(-c3ccc(Br)cc3)c2ncn1Cc1nc(-c2ccccc2)no1 | 1150
CCOC(=O)C1=C(C)NC2=C(C(=O)c3ccccc32)C1c1ccccc1OCC (centres undefined) | 961
CCOc1ccc(NC(=O)c2cc(=O)c3cc(CC)ccc3o2)c2cccnc12 | 693
CCOC(=O)Cc1csc(NC(=O)C2CC(=O)N(c3n[nH]c4cccc(F)c34)C2)n1 (centres undefined) | 699
CCCn1cc(S(=O)(=O)Nc2cccc(CC)c2)c2cccnc21 | 943
CNC(=O)[C@@H]1CN(S(=O)(=O)c2ccc(Cl)s2)C[C@H]1c1nc(C)no1 | 758
CCCNC(=O)C1CC(=O)N(CCc2c[nH]c3ccc(Cl)cc23)C1 (centres undefined) | 708
CCCN1CN=C(Nc2nc(C)c3cccc(OC)c3n2)NC1 | 644
O=c1[nH]nc(SC(F)(F)C(F)(F)C(F)(F)F)c(=O)[nH]1 | 709

Continued, values first:

RP-LC retention time [s] | SMILES
900 | CN(C)S(=O)(=O)c1ccc2c(c1)N(CC(=O)NCc1cccc(F)c1)C(=O)C1CCCCN21 (centres undefined)
861 | O=C1NC2(CCN(C(=O)c3ccccc3)CC2)N=C1c1ccc(Br)cc1
602 | CN(CCCNC(=O)C1CCc2nc(N3CCOCC3)ncc2C1)c1ccccc1 (centres undefined)
917 | O=C(NC1CCCCCC1)c1nc(Nc2ccccc2)c2ccccc2n1
758 | COc1ccc(OC)c(NC(=O)N2CCC(N3CCN(Cc4ccc(C)cc4)C(=O)C3=O)CC2)c1
702 | CN(Cc1ccccc1)C(=O)CC(=O)Nc1ccc2nc3n(c(=O)c2c1)CCCCC3
626 | COc1ccc(NC(=O)COc2ccc(-c3nnc4n3CCCC4)cc2)cc1OC
836 | CCOc1ccc(C(=O)N2CCC3(CC2)NC(=O)c2cc(F)ccc2N3CC)cc1
679 | Cc1ccc(CNC(=O)C2CCN(S(=O)(=O)c3c(C)[nH]c(C)c3C(=O)N3CCCC3)CC2)o1
1130 | Cc1cccc(Oc2nccnc2N2CCC(C(=O)NC(C)c3ccc(C)c(C)c3)CC2)c1 (centres undefined)
895 | Cc1cccc(NC(=O)C2CCN(S(=O)(=O)c3cccc4nsnc34)CC2)c1C
1100 | Cc1ccc(Cn2cccc2C(=O)C(=O)NC2CCCC2)cc1
716 | CC(=O)N1CCC(C(=O)Nc2cccc(OCc3nnc(-c4ccccc4)o3)c2)CC1
585 | CC(=O)N(Cc1nn(C)c2c1CN(Cc1ccc(OCC(N)=O)cc1)CC2)c1ccccc1
654 | Cn1nc(-c2ccccc2F)c2cc(C(=O)N3CCN(c4ccccn4)CC3)sc21
755 | Cc1nc(N2CCN(c3ccccn3)CC2)nc2oc(-c3ccccc3)nc12
972 | COCCNS(=O)(=O)c1cccc(-c2nc(-c3ccccc3)no2)c1
1170 | CC(C)Cn1c(=O)c2ccccc2n(Cc2nc(-c3ccccc3Cl)no2)c1=O
644 | CN(Cc1nc2cc(C(=O)N3CCCC3)ccc2n1C)C(=O)Nc1ccccc1Br
1030 | CN(C)c1cccc(-c2nc(C3CC(=O)N(c4ccccc4)C3)no2)c1 (centres undefined)
955 | CCc1csc(-c2ccc(N3CCN(C(=O)c4ccc(F)c(F)c4)CC3)nc2)n1
657 | CCOc1ccccc1NC(=O)c1cn2c(n1)CCCC2
717 | CCn1cc(-c2ccc(Cl)cc2)cc1C(=O)N1CCN(C(C)C)CC1
910 | COc1ccc(-c2cc(C(=O)N3CCN(S(=O)(=O)c4ccc(F)c(C)c4)CC3)[nH]n2)cc1

RP-LC retention time [s] | SMILES
875 | COc1cc(NC(=O)C2CCN(S(=O)(=O)c3ccc4c(c3)sc(=O)n4C)CC2)cc(OC)c1
859 | O=C(CN1C(=O)CCCc2ccccc21)NCc1ccc(F)c(Cl)c1
903 | Cc1ccc(C)c(-c2nc3ccccc3c(C(=O)N3CCN(c4ncccn4)CC3)c2C)c1
723 | CCCCc1ccc(Nc2c(C(=O)N3CCSCC3)cnc3nc(C)ccc23)cc1
594 | Fc1ccc(-c2cc(CN3CCCC3)[nH]n2)cc1
718 | COCCNC(=O)N1CCCN(C2=NS(=O)(=O)C(c3ccc(Cl)cc3)=C2C)CC1
864 | CC(C)CNC(=O)NC(C(=O)N1CCc2ccccc21)c1ccccc1 (centres undefined)
570 | Cn1nc2n(c1=O)CCN(C(=O)c1ccsc1)CC2
765 | Cn1c(N2CCCC(C(=O)N3CCN(c4ccccc4F)CC3)C2)cc(=O)n(C)c1=O (centres undefined)
644 | O=C(NC1CCCC1)N1CCN(Cc2nc3cc(C(=O)N4CCCCC4)ccc3o2)CC1
793 | COc1ccc(NC(=O)C2CC(=O)N(CCc3c[nH]c4ccc(F)cc34)C2)c(OC)c1 (centres undefined)
786 | CC(=O)N1CCC(C(=O)NCc2ccc(-c3nc(-c4ccc(F)cc4)no3)s2)CC1
714 | O=C(NCc1ccc2c(c1)OCO2)C1CC(=O)N(c2ccc3c(c2)CCN3C(=O)C2CC2)C1 (centres undefined)
864 | Cc1ccc(NS(=O)(=O)c2cc3c(s2)CCN(C(=O)C2CCC2)C3)cc1
597 | O=C(NC1CCCCCC1)c1ccc2c(c1)ncn2CCN1CCCC1
688 | O=C(Nc1cccc(-c2ccc(N3CCOCC3)nn2)c1)Nc1ccccc1F
782 | CCc1ccccc1NC(=O)C1CCCN(S(=O)(=O)c2cn(C(C)C)cn2)C1 (centres undefined)
607 | CNC(=O)[C@@H]1CN(C(=O)CCc2nc3ccccc3s2)C[C@H]1c1n[nH]c(C)n1
577 | O=C(c1ccc2ncnc(N3CCCC3)c2c1)N1CCCCC1
880 | Cc1ccc(-c2ccc(=O)n(CCCC(=O)N3CCc4ccccc43)n2)cc1
799 | Cc1oc(-c2ccc(NC(=O)C3CCC3)cc2)nc1Cn1cccn1
834 | O=C(NCCS(=O)(=O)N1CCN(c2ccc(F)cc2)CC1)c1cccc([N+](=O)[O-])c1
835 | O=C(c1ccc(S(=O)(=O)c2ccc(Br)cc2)nc1)N1CCN(c2ncccn2)CC1
